{"source": "patent US20080261810A1", "about": "“Insecticides Based on Neonicotinoids and Safeners” (priority 2004, published 2008)", "key": {"[1]": {"test_system": "green peach aphid (Myzus persicae)", "format": "in vivo", "experimental": "To produce a suitable preparation of active compound, 1 part by weight of active compound is mixed with the stated amounts of solvent and emulsifier, and the concentrate is diluted with emulsifier-containing water to the desired concentration.\nCabbage leaves (Brassica oleracea) which are heavily infested by the green peach aphid (Myzus persicae) are treated by being dipped into the preparation of active compound of the desired concentration.\nAfter the desired period of time, the kill in % is determined. 100% means that all aphids have been killed; 0% means that none of the aphids have been killed. The determined kill rates are entered into Colby's formula."}, "[2]": {"test_system": "caterpillars of the diamond back moth (Plutella xylostella, sensitive strain)", "conditions": "in vivo", "experimental": "After the desired period of time, the kill in % is determined. 100% means that all caterpillars have been killed; 0% means that none of the caterpillars have been killed. The determined kill rates are entered into Colby's formula."}}, "note": "Like-named read-outs stand apart in the source and are kept apart here.", "data": [{"smiles": "CN/C(=N\\[N+](=O)[O-])NCc1cnc(Cl)s1", "note": "[Clothianidin, clothianidin]", "values": [{"measurement": "Mortality in % after 1^d", "setting": "[1]; 0.8 ppm, active compound alone", "result": 40, "unit": "%"}]}, {"smiles": "O=[N+]([O-])/N=C1\\NCCN1Cc1ccc(Cl)nc1", "note": "[Imidacloprid, imidacloprid]", "values": [{"measurement": "Mortality in % after 1^d", "setting": "[1]; in vivo", "result": 45, "unit": "%"}, {"measurement": "Mortality in % after 1^d", "setting": "[2]", "result": 40, "unit": "%"}]}]}
